The test concerns the target T1, GCS enzyme contained within Golgi preparations isolated from human A375 malignant melanoma skin cells (Homo sapiens, UniProt Q16739).
T1 construct: endogenous levels of GCS enzyme contained within Golgi preparations isolated from human A375 malignant melanoma skin cells; endogenous in cells; host or cells: A375 human malignant melanoma cells (crude Golgi preparation)
T1 sequence (Q16739 1-394): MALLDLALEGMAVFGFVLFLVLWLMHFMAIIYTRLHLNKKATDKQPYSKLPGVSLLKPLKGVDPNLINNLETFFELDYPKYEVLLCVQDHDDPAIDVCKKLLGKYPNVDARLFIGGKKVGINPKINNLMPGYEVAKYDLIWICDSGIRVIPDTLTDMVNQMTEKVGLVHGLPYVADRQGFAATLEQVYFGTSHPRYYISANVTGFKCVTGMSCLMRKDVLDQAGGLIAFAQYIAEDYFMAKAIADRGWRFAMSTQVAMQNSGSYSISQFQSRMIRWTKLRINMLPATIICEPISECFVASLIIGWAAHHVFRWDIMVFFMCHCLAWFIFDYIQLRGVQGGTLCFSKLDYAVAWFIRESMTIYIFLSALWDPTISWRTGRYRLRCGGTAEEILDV
Put plainly: UDP-Glo glucosylceramide synthase biochemical assay. The settings on record: crude Golgi preparation from A375 cells; C6 ceramide and UDP-glucose substrates; 20 h incubation at room temperature; UDP detected by luminescence. From the text: UDP-Glo™ Glucosylceramide Synthase Biochemical Assay
A UDP-Glo™ glucosylceramide synthase biochemical assay was utilized to evaluate the effect of test compounds on the activity of endogenous levels of GCS enzyme contained within Golgi preparations isolated from human A375 malignant melanoma skin cells. The UDP-Glo™ glucosylceramide synthase assay uses UDP-Glucose as a nucleotide-glycosyl donor and ceramide as substrate acceptor molecules. In the reaction, glucosylceramide synthase (GCS) transfers glucose from UDP-Glucose to ceramide. Glucosylceramide and UDP are released as products.
Using Promega's UDP-Glo™ Glycosyltransferase assay kit (Promega Corporation, Madison, WI, USA (Promega)), GCS activity was indirectly measured by detecting the amount of UDP produced. An aliquot of GCS enzyme (1.5 μg crude golgi preparation, total protein) and titrated test compound were aliquoted to each well and incubated for 30 minutes at room temperature. […] An equivalent volume of substrate mixture was then added to each well. Following a 20 h incubation at room temperature to allow for GCS turnover of substrate, an equal volume of UDP detection reagent (Promega) was added to each well and incubated for an additional 75 minutes at room temperature to simultaneously convert the accumulated UDP product into ATP and generate light in a luciferase reaction. The generated light was detected using a luminometer. […] luminescence values (RLUs) were normalized to mean “min” and “max” effects, as determined on each plate. […] Values for % Emax and EC50 were determined by best-fitting the normalized data to a curve in Activity Base along a four-parameter logistic nonlinear regression (4PL) model (based on the Levenberg-Marquardt algorithm and defined by the equation below):
[formula] where: n is 4 PMin (bottom of the curve); m is 4 PMax (top of the curve); i is IP (inflection point of curve); and p is slope. See Levenberg, K., “A Method for the Solution of Certain Problems in Least Squares”, Quart. Appl. Math. […] Math.

We go through 27 compounds from patent publication US12679807B2 (MERCK SHARP & DOHME LLC, priority 2020, dated 2026).

As usually defined, the EC50 is the concentration needed to bring the measured effect to its halfway point. A higher EC50 goes with weaker potency.

Turning to `Cc1noc(-c2ccc(-c3cccc4c3C(=O)N([C@H](C3CC3)C(C)(C)O)C4)cc2)n1` [Compound 78, (R)-2-(1-cyclopropyl-2-hydroxy-2-methylpropyl)-7-(4-(3-methyl-1,2,4-oxadiazol-5-yl)phenyl)isoindolin-1-one], a half-maximal effect (EC50) was put at 59 nM.

For `O=C(Nc1cccc2c1C(=O)N(CC1CC1)C2)c1c(Cl)cncc1Cl` [Compound 139, 3,5-dichloro-N-(2-(cyclopropylmethyl)-3-oxoisoindolin-4-yl)isonicotinamide], the EC50 was 120 nM.

Compound `CN1C(=O)Cc2ccc(-c3cccc4c3C(=O)N([C@H](C3CC3)C(C)(C)O)C4)cc21` [Compound 84, (R)-6-(2-(1-cyclopropyl-2-hydroxy-2-methylpropyl)-3-oxoisoindolin-4-yl)-1-methylindolin-2-one] yielded an EC50 of 4.8 nM.

The compound `Cc1c(CO)noc1-c1ccc(-c2cccc3c2C(=O)N([C@H](C2CC2)C(C)(C)O)C3)cc1` [Compound 96, 2-[(1R)-1-cyclopropyl-2-hydroxy-2-methyl-propyl]-7-[4-[3-(hydroxymethyl)-4-methyl-isoxazol-5-yl]phenyl]isoindolin-1-one] gave an EC50 of 1.4 nM.

`O=C(Nc1cccc2c1C(=O)N(CC1(O)CCC1)C2)c1ccnc2c1CCC2` [Compound 166, N-(2-((1-hydroxycyclobutyl)methyl)-3-oxoisoindolin-4-yl)-6,7-dihydro-5H-cyclopenta[b]pyridine-4-carboxamide] had an EC50 of 360 nM.

`CCOc1ccccc1C(=O)Nc1cccc2c1C(=O)N(C1CN3CCC1CC3)C2` (racemic) [Compound 107, (R and S)-2-Ethoxy-N-(3-oxo-2-(quinuclidin-3-yl)isoindolin-4-yl)benzamide] returned an EC50 of 550 nM.

The compound `O=C(Nc1cccc2c1C(=O)N(CC1CC1)C2)c1ccnc2c1CCC2` [Compound 146, N-(2-(cyclopropylmethyl)-3-oxoisoindolin-4-yl)-6,7-dihydro-5H-cyclopenta[b]pyridine-4-carboxamide] showed an EC50 of 390 nM.

In turn, `Cc1nnc(-c2ccc(-c3cccc4c3C(=O)N([C@@H](CO)C3CC3)C4)cc2)o1` [Compound 50, (R)-2-(1-cyclopropyl-2-hydroxyethyl)-7-(4-(5-methyl-1,3,4-oxadiazol-2-yl)phenyl)isoindolin-1-one] yielded an EC50 of 630 nM.

`CC(C)(O)[C@@H](C1CC1)N1Cc2cccc(-c3ccc(-c4ncco4)cc3)c2C1=O` [Compound 77, (R)-2-(1-cyclopropyl-2-hydroxy-2-methylpropyl)-7-(4-(oxazol-2-yl)phenyl)isoindolin-1-one] gave an EC50 of 39 nM.

Compound `Cc1ccc(F)c(C(=O)Nc2cncc3c2C(=O)N([C@H](C2CC2)C(C)(C)O)C3)c1Cl` [Compound 167, (R)-2-chloro-N-(2-(1-cyclopropyl-2-hydroxy-2-methylpropyl)-1-oxo-2,3-dihydro-1H-pyrrolo[3,4-c]pyridin-7-yl)-6-fluoro-3-methylbenzamide] had an EC50 of 2.1 nM.

As to `COC(C)(C)[C@@H](C1CC1)N1Cc2cccc(-c3ccc(-c4nnc(C)o4)cc3)c2C1=O` [Compound 57, (R)-2-(1-cyclopropyl-2-methoxy-2-methylpropyl)-7-(4-(5-methyl-1,3,4-oxadiazol-2-yl)phenyl)isoindolin-1-one], the EC50 stood at 260 nM.

Compound `CC(C)(O)C(C1CC1)N1Cc2cccc(NC(=O)c3c(Cl)cnc4c3OCO4)c2C1=O` (single isomer, unassigned) [Compound 157, (R or S)-6-chloro-N-(2-(1-cyclopropyl-2-hydroxy-2-methylpropyl)-3-oxoisoindolin-4-yl)-[1,3]dioxolo[4,5-b]pyridine-7-carboxamide] gave an EC50 of 0.49 nM.

In turn, `Cc1nnc(-c2ccc(-c3cccc4c3C(=O)N([C@H](C3CC3)C(C)(C)O)C4)c(F)c2)o1` [Compound 68, (R)-2-(1-cyclopropyl-2-hydroxy-2-methylpropyl)-7-(2-fluoro-4-(5-methyl-1,3,4-oxadiazol-2-yl)phenyl)isoindolin-1-one] showed an EC50 of 3.5 nM.

`COc1cc(C#N)nc(-c2cccc3c2C(=O)N([C@H](C2CC2)C(C)(C)O)C3)c1` [Compound 97, (R)-6-(2-(1-cyclopropyl-2-hydroxy-2-methylpropyl)-3-oxoisoindolin-4-yl)-4-methoxypicolinonitrile] registered an EC50 of 12 nM.

In turn, `CC(C)[C@H](CO)N1Cc2cccc(NC(=O)c3c(Cl)ccc(F)c3Cl)c2C1=O` [Compound 124, (R)-2,6-dichloro-3-fluoro-N-(2-(1-hydroxy-3-methylbutan-2-yl)-3-oxoisoindolin-4-yl)benzamide] showed an EC50 of 26 nM.

Compound `Cc1nn(C)c2ccc(-c3c(F)ccc4c3C(=O)N([C@H](C3CC3)C(C)(C)O)C4)cc12` [Compound 55, (R)-2-(1-cyclopropyl-2-hydroxy-2-methylpropyl)-7-(1,3-dimethyl-1H-indazol-5-yl)-6-fluoroisoindolin-1-one] registered an EC50 of 0.18 nM.

In the case of `CCOc1ccccc1C(=O)Nc1cccc2c1C(=O)N([C@@H]1CCCC[C@@H]1O)C2` [Compound 103, 2-ethoxy-N-(2-((1R,2S)-2-hydroxycyclohexyl)-3-oxoisoindolin-4-yl)benzamide], the EC50 worked out at 450 nM.

As to `Cc1nnc(-c2cc(F)c(-c3cccc4c3C(=O)N([C@H](C3CC3)C(C)(C)O)C4)cc2C)o1` [Compound 70, (R)-2-(1-cyclopropyl-2-hydroxy-2-methylpropyl)-7-(2-fluoro-5-methyl-4-(5-methyl-1,3,4-oxadiazol-2-yl)phenyl)isoindolin-1-one], the EC50 is 0.81 nM.

`CC(C)(O)C(C1CC1)N1Cc2cccc(/C=C/c3ccc(F)cc3F)c2C1=O` (racemic) [Compound 4, (R and S)-(E)-2-(1-cyclopropyl-2-hydroxy-2-methylpropyl)-7-(2,4-difluorostyryl)isoindolin-1-one] had an EC50 of 290 nM.

For `CCOc1ccccc1C(=O)Nc1cccc2c1C(=O)N([C@@H](CO)C(C)C)C2` [Compound 100, (R)-2-ethoxy-N-(2-(1-hydroxy-3-methylbutan-2-yl)-3-oxoisoindolin-4-yl)benzamide], the EC50 was found to be 150 nM.

On to `CC(C)(O)[C@@H](C1CC1)N1Cc2cccc(-c3ccc(-c4cnsc4)cc3)c2C1=O` [Compound 95, (R)-2-(1-cyclopropyl-2-hydroxy-2-methylpropyl)-7-(4-(isothiazol-4-yl)phenyl)isoindolin-1-one], for which the midpoint of the response, the EC50, lay at 83 nM.

As to `O=C(Nc1cccc2c1C(=O)N(C(C1CC1)C1CC1)C2)c1c(Cl)cnc2c1OCO2` [Compound 118, 6-chloro-N-(2-(dicyclopropylmethyl)-3-oxoisoindolin-4-yl)-[1,3]dioxolo[4,5-b]pyridine-7-carboxamide], a half-maximal response (EC50) required 5.7 nM.

As to `CC(C)(O)C(C1CC1)N1Cc2cccc(NC(=O)c3cccc(F)c3C(F)(F)F)c2C1=O` (single isomer, unassigned) [Compound 116, (R or S)-N-(2-(1-cyclopropyl-2-hydroxy-2-methylpropyl)-3-oxoisoindolin-4-yl)-3-fluoro-2-(trifluoromethyl)benzamide], the EC50 stood at 3.1 nM.

Regarding `Cc1nn(C)c2ccc(-c3cccc4c3C(=O)N([C@H](C3CC3)C(C)(C)O)C4)cc12` [Compound 86, (R)-2-(1-cyclopropyl-2-hydroxy-2-methylpropyl)-7-(1,3-dimethyl-1H-indazol-5-yl)isoindolin-1-one], the EC50 was 0.58 nM.

Regarding `CN1C(=O)Cc2cc(-c3cccc4c3C(=O)N([C@H](C3CC3)C(C)(C)O)C4)ccc21` [Compound 85, (R)-5-(2-(1-cyclopropyl-2-hydroxy-2-methylpropyl)-3-oxoisoindolin-4-yl)-1-methylindolin-2-one], the EC50 was determined as 8.2 nM.

On to `CC(C)(O)[C@@H](C1CC1)N1Cc2cccc(-c3ccc(-c4ncon4)cc3)c2C1=O` [Compound 83, (R)-7-(4-(1,2,4-oxadiazol-3-yl)phenyl)-2-(1-cyclopropyl-2-hydroxy-2-methylpropyl)isoindolin-1-one], for which a half-maximal response (EC50) required 100 nM.

In turn, `Cc1cnc2c(c1COc1cccc3c1C(=O)N(C(C1CC1)C(C)(C)O)C3)OCO2` (single isomer, unassigned) [Compound 181] gave an EC50 of 54 nM.
